Experiments:
[1] = test system: algae cells; assay: Loading of algae with astaxanthin, microscopic examination; set-up: species or system Cyclotella meneghiniana; details: over 24 hours
Procedure: A rehydration composition was prepared by adding 1 g of synthetic astaxanthin to 200 ml of fresh, potable water, then microwaving 3 times for 1 min each time.
The algae were then rehydrated by blending the astaxanthin solution (suspension) together with 1 litre of potable water and 200 mg of the algae powder for 2 minutes.
Astaxanthin particles were able to penetrate inside algae cells and were also absorbed by the porous surface of the siliceous exoskeleton (frustule).

[2] = test system: algae cells; assay: Loading of freeze-dried algae with vitamin C by rehydration; vitamin C in algal cells by HPLC-DAD; set-up: species or system Cyclotella meneghiniana; details: rehydration in 5 g/L vitamin C; incubation at 28° C.
Procedure: A rehydration composition was prepared by dissolving 500 mg per litre vitamin C in filtered natural (North Sea) seawater (20° C.). A second rehydration composition was prepared by dissolving 5 g per litre vitamin C in the seawater. As a control, a third rehydration composition consisted of just the clean seawater without any vitamin C added.
The algae were then rehydrated by adding one of the rehydration compositions to a standard kitchen blender (Kenwood KM230, 650 W, with blender attachment). The blender was switched on at a moderate mixing speed (speed 4) to agitate the rehydration composition. Then 10 g per litre of freeze-dried algae was added to the rehydration composition while mixing, and the freeze-dried algae was allowed to blend into the rehydration composition for 2 minutes. Cell integrity after rehydration was verified using a microscope.
Each of the three rehydration compositions comprising rehydrated algae were split into six replicates. Three replicates of each composition were harvested immediately after rehydration. The remaining three replicates of the treatment groups were incubated in a water bath at 28° C. and provided with moderate aeration. […]
The concentration of vitamin C in the algal cells of the treatment groups and control at the different time points were then analysed by high-performance liquid chromatography with Diode-Array Detection.

stability of association of astaxanthin particles within algae cells [1]	time for which the vitamin C level in the algae cells was maintained [2] [h]	Compound
remained stable		CC1=C(/C=C/C(C)=C/C=C/C(C)=C/C=C/C=C(C)/C=C/C=C(C)/C=C/C2=C(C)C(=O)[C@@H](O)CC2(C)C)C(C)(C)C[C@H](O)C1=O [astaxanthin]
	≥ 6	O=C1O[C@H]([C@@H](O)CO)C(O)=C1O [vitamin C]

From patent US20210196816A1, “ALGAE COMPRISING THERAPEUTIC AND/OR NUTRITIONAL AGENTS” (TomAlgae CVBA, priority 2016, published 2021)
